Legend:
[1] = molecular target: T1, SN23-Syn4-Vp8 SNARE complex (Rattus norvegicus, UniProt O70377+Q08850+Q9WUF4); assay: SNARE-driven membrane fusion (total lipid mixing) assay with proteoliposomes; assay type: biochemical; details: for inhibition of membrane fusion (lipid mixing): inhibitor applied to T-vesicles, T:V 9:1, 37°C, NBD dequenching, Vp2S/Vp8S at 10 µM, three independent experiments (Figure 3B-D); for inhibition of membrane fusion, peptide added before preincubation: peptide added before preincubation of T- and V-liposomes at 4°C overnight (Figure 4A)
T1 construct: Syn4 (amino acids 1–298); SNAP-23 (amino acids 1–210); VAMP8 (amino acids 1–100); GST (N, cleaved yes); made in house; host or cells: Escherichia coli Rosetta(DE3)pLysS
T1 sequence (Q08850 1-298): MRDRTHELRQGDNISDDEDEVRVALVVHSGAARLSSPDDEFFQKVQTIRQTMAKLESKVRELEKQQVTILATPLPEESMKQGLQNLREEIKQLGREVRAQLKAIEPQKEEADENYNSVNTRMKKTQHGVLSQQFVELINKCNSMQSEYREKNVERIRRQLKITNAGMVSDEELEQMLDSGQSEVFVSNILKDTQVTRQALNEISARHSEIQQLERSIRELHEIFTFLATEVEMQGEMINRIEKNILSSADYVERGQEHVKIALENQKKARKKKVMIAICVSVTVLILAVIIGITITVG
T1 sequence (O70377 1-210): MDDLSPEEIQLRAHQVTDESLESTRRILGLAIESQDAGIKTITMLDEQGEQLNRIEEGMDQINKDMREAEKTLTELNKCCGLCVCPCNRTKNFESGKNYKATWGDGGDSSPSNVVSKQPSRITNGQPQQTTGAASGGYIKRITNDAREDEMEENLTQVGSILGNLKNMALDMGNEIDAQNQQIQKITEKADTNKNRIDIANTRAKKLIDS
T1 sequence (Q9WUF4 1-100): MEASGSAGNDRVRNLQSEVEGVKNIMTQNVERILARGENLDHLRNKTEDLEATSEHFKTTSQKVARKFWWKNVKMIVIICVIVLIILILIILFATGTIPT
From the text: Total RNA was obtained from RBL-2H3 cells using TRIzol® Reagent (#15596026, Invitrogen, Carlsbad, CA, USA) and served as a template for cDNA synthesis with M-MLV reverse transcriptase (M1705, Promega, Madison, WI, USA) according to the manufacturer’s protocol. The cDNAs amplified for rat Syn4, SNAP-23, VAMP2, VAMP4, VAMP7, and VAMP8 using each primer pair ([4]), were cloned into the pGEX-4T 1 vector. The mast cell SNARE proteins [Syn4 (amino acids 1–298), SNAP-23 (amino acids 1–210), full-length VAMP2 (VpF, amino acids 1–116), VAMP4 (amino acids 1–141), and VAMP8 (amino acids 1–100)] were expressed in Escherichia coli Rosetta(DE3)pLysS (#70956, Novagen, Darmstadt, Germany) and purified as glutathione-S-transferase-tagged fusion proteins as reported previously ([8]).
To prepare the unilamellar liposomes, a 50-mM lipid mixture of palmitoyl-2-oleoylphosphatidylcholine (POPC) (#850457, Avanti Polar Lipids, Alabaster, AL, USA):1,2-dioleoyl-phosphatidylserine (DOPS) (#840035, Avanti Polar Lipids) at 65:35 mol% was dried in a glass tube under a gentle stream of nitrogen gas and then exposed to a vacuum overnight. The resultant lipid film was resuspended in dialysis buffer (25 mM HEPES and 100 mM KCl, pH 7.4) by vortexing, followed by an extrusion step with polycarbonate membrane filters having a pore size of 100 nm (#610005, Avanti Polar Lipids). To prepare proteoliposomes, binary T-SNAREs, which were pre-formed by mixing Syn4 and SNAP-23 at room temperature for 60 min, were incubated with 50 mM unilamellar liposomes for 15 min at the same temperature, resulting in a 50:1 lipid/protein molar ratio ([9]).
For the preparation of V-SNARE proteoliposomes, a 10-mM premixed lipid solution [POPC:DOPS:N-(7-nitro-2-1,3-benzoxadiazol-4-yl (NBD))-phosphatidylserine (#810198, Avanti Polar Lipids):[…] (#810150, Avanti Polar Lipids) = 62:35:1.5:1.5 (molar ratio)] was used for the preparation of fluorescent liposomes in the same manner as above. The prepared liposomes were then mixed with VAMP2 for 15 min at room temperature. The liposome/protein mixture was diluted twice to bring the concentration of n-octyl glucoside (O8001, Sigma-Aldrich) below the critical micelle concentration. After overnight dialysis against 1L dialysis buffer at 4°C to remove the detergent, SM-2 bio-beads (#1523920, Bio-Rad Laboratories, Hercules, CA, USA) were added to the sample to remove any remaining n-octyl glucoside. The solution was then centrifuged at 10,000 × g to remove the protein/lipid aggregates, and the final lipid concentrations of both the T- and V-liposomes were adjusted to 1 mM with a lipid-to-protein ratio of 50:1.
A total lipid mixing assay using the T- and V-liposomes was performed as described previously with minor modifications ([8]). Briefly, peptide inhibitors were applied to the T-vesicles at the indicated concentrations and then the T-vesicles were mixed with the V-vesicles in a 384-well plate for the initiation of fusion, with a T- to V-vesicle volume ratio of 9:1. The fusion was monitored using the dequenching of NBD fluorescence signal (excitation 465 nm/emission 530 nm). After at least 80 min of fusion, the maximum NBD signal was obtained by adding 0.1% Triton X-100™. All the lipid-mixing experiments were performed at 37°C.

[2] = tested on: complexes containing both Syn4 and SN23; assay: Co-immunoprecipitation of SNARE complexes in activated RBL-2H3 cells, anti-SNAP-23 blot; assay type: cell-based, rat; details: peptides added to the medium after A23187 pretreatment; co-IP, blot anti-SNAP-23 (Figure 4C)
Protocol: Lysates of RBL-2H3 cells (0.5–1 × 10^6 cells), which were obtained by the addition of 1 mL lysis buffer (50 mM Tris–HCl, 150 mM NaCl, 1% Triton X-100™, 1 mM EDTA, pH 7.5) supplemented with a protease inhibitor cocktail (Calbiochem®, Merck Millipore, Billerica, MA, USA), were centrifuged at 13,000 g at 4°C to remove cell debris and precleared with 100 µL protein G Sepharose® (GE Healthcare) for 2 h at 4°C. The precleared lysates were incubated with antibodies against SNARE proteins (Syn4, SNAP-23, VAMP2, and VAMP8) for 2 h at 4°C for binding, and then the antibody–antigen complexes were precipitated by incubation with a protein G slurry overnight with constant shaking. After an extensive washing step with lysis buffer, an immunoblotting analysis was performed for the precipitates. The immunoprecipitated proteins and cell lysates were electrophoresed on 12% sodium dodecyl sulfate-polyacrylamide gel electrophoresis gels and then transferred to nitrocellulose blotting membranes (GE Healthcare). After blocking the membranes in TBST (10 mM Tris–HCl, 150 mM NaCl, and 0.05% Tween® 20, pH 8) containing 0.5% BSA and 5% skim milk for 1 h at room temperature, primary anti-SNAP-23 antibody (1:1,000 dilution) in TBST supplemented with 1% BSA and 0.01% sodium azide was added and incubated at 4°C overnight. […]

| Sequence | inhibition of membrane fusion (lipid mixing) [1] | inhibition of membrane fusion, peptide added before preincubation [1] | amount of complexes containing both Syn4 and SN23 (binary Syn4-SN23 and ternary complexes) [2] |
| --- | --- | --- | --- |
| EDEMEENLTQVGSILGN [SC23N, 17-mer peptide, N-terminal region of SNAP-23 SNARE motif SC23] | inhibited membrane fusion by both the SN23-Syn4-Vp2 and SN23-Syn4-Vp8 complexes | inhibited the membrane fusion induced by both SN23-Syn4-Vp2 and SN23-Syn4-Vp8 | most dramatically reduced |
| LQSEVEGVKNIMTQNVE [Vp8N, 17-mer peptide, N-terminal region of VAMP8 SNARE motif] | specific to the SN23-Syn4-Vp8 complex | inhibited the membrane fusion driven only by their cognate SNARE complexes |  |
| SARHSEIQQLERTIREL [Syn4N, 17-mer peptide, N-terminal region of syntaxin 4 SNARE motif] | inhibited membrane fusion by both the SN23-Syn4-Vp2 and SN23-Syn4-Vp8 complexes | inhibited the membrane fusion induced by both SN23-Syn4-Vp2 and SN23-Syn4-Vp8 | most dramatically reduced |
